Experimental data from US20070059688A1, “Gastrointestinal chemosensory receptors” (priority 2001, published 2007).
Entries after “also recorded” stand apart in the source; their conditions may differ.

Key:
STC-1 cells [1] = test: Ca2+ imaging of individual STC-1 cells (fura 2-AM) after bitter tastants; type: cell-based, mouse; details: for [Ca2+]i response in STC-1 cells (in words): single cells, FIG. 9 concentrations: PTC 3 mM, 6-PTU 1 mM, caffeine 10 mM, nicotine 10 mM, cycloheximide 50 μM
Experimental: The [Ca^2+]i of individual cells was measured before and after exposure to single concentrations of bitter tastants. Top panel. […] The values in parenthesis are the number of cells analyzed. Lower panels. Individual traces of [Ca^2+], from two cells exposed to denatonium benzoate or cycloheximide.
Due to heterogeneity of the STC-1 cell population, we monitored responses in the intracellular Ca^2+ concentration ([Ca^2+]i) using Ca^2+ imaging of individual cells and tested the effect of several compounds widely used in bitter taste signaling.
The concentrations of denatonium used in these experiments are similar to those used for eliciting second messenger changes and ion channel activity in taste tissues.
Since a low level of mT2R5 expression was also detected in STC-1 cells, we determined if cycloheximide stimulates a [Ca^2+]i response in these cells.

IEC-18 cells = test: [Ca2+]i changes in IEC-18 cells; type: cell-based, rat; details: FIG. 10B: 5 mM denatonium benzoate, vasopressin as positive control
Experimental: (§1) (A) STC-1 cells, grown on cover slips, were washed with a buffer solution (buffer A) consisting of Hanks' balanced salt solution supplemented with 0.03% NaHCO3, 1.3 mM CaCl2, 0.5 mM MgCl2, 0.4 mM MgSO4, and 0.1% BSA. After washing, cells were incubated with […] methyl ester (fura-2/AME) from a stock of 1 mM in DMSO for 30 min at room temperature. Cells were then washed again with buffer A and left at room temperature for an additional 30 min. Each cover slip was placed in a glass cuvette with 2 ml of buffer A, and fluorescence was measured continuously in a Hitachi F-2000 fluorospectrophotometer with excitation wavelength of 340 and 380 nm and an emission wavelength of 510 nm. The bars represent the increase in [Ca^2+]i in response to various concentrations of denatonium benzoate (DB), as indicated. (B) [Ca^2+]i changes in IEC-18 cells, a normal rat intestinal epithelial cell line, after sequential addition of 5 mM denatonium benzoate (DB) followed by 50 nM vasopressin (VP), added as a positive control. (C) [Ca^2+]i changes in Swiss 3T3 cells after sequential addition of 5 mM denatonium benzoate (DB) followed by 10 nM bombesin (Bom), added as a positive control. The changes in [Ca^2+]i in IEC-18 and Swiss 3T3 cells were measured as described above for STC-1 cells.

[2] = target: T1, chimeric mT2R5 receptors containing the NH2-terminal 39 amino acids of rhodopsin (Mus musculus, UniProt Q9JKT4); details: HEK-293 cells; Chandrashekar et al, Cell 100:703-711 (2000); cited from earlier work
T1 construct: host or cells: HEK-293 (heterologous expression)
T1 sequence (Q9JKT4 with tags, fused parts or gaps): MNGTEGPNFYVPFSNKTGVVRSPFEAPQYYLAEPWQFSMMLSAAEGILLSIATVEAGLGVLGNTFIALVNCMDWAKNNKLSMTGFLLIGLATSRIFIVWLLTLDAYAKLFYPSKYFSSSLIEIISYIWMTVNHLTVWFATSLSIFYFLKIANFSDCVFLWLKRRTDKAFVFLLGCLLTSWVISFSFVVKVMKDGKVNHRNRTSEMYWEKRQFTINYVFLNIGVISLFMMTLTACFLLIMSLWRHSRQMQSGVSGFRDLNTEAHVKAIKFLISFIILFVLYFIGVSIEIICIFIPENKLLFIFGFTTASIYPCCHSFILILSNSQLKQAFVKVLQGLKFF

STC-1 cells [3] = test: [Ca2+]i in STC-1 cells on cover slips, fura-2 fluorospectrophotometry; type: cell-based, mouse; details: various concentrations of denatonium benzoate, FIG. 10A
Experimental: as §1

SMILES	[Ca2+]i response in STC-1 cells (in words) (STC-1 cells [1])	[Ca2+]i response in IEC-18 cells (in words) (IEC-18 cells)	other results
CCCc1cc(=O)[nH]c(=S)[nH]1 [6-n-propil-2-thiouracil]	robust [Ca^2+]i responses; also recorded: promoted rapid [Ca^2+]i responses	not in other well studied cell lines such as IEC-18 or 3T3	
CN1[C@@H]2CC[C@H]1C[C@@H](OC(=O)C(CO)c1ccccc1)C2 (some centres unmarked) [atropine]	did not induce any detectable change		
O=C(O)/C=C/c1ccc(O)c(O)c1 [caffeic acid]	did not induce any detectable change		
Cn1c(=O)c2c(ncn2C)n(C)c1=O [caffeine]	robust [Ca^2+]i responses		
C[C@@H]1C[C@@H]([C@H](O)CC2CC(=O)NC(=O)C2)C(=O)[C@@H](C)C1 [cycloheximide]	induced oscillatory changes in [Ca^2+]i in a small sub-population of STC-1 cells; also recorded: promoted rapid [Ca^2+]i responses	not in other well studied cell lines such as IEC-18 or 3T3	mT2R5 response, increase in [Ca2+]i (in words) [2]: responds
CC[N+](CC)(CC(=O)Nc1c(C)cccc1C)Cc1ccccc1 [denatonium benzoate]	rapid and dose-dependent elevation	not in other well studied cell lines such as IEC-18 or 3T3	cells with increase in [Ca2+]i (STC-1 cells [1]; 1 mM, percentage of the STC-1 population): 33%; cells with marked increase in [Ca2+]i (STC-1 cells [1]; 10 mM, percentage of STC-1 cells examined): 97%; [Ca2+]i response in STC-1 cells (in words) (STC-1 cells [1]; listed as denatonium): promoted rapid [Ca^2+]i responses; increase in [Ca2+]i in STC-1 cells (in words) (STC-1 cells [3]): dose-dependent increase
CN1CCCC1c1cccnc1 (centres unmarked) [nicotine]	robust [Ca^2+]i responses		
NC(=S)Nc1ccccc1 [phenylthiocarbamide]	robust [Ca^2+]i responses; also recorded: promoted rapid [Ca^2+]i responses	not in other well studied cell lines such as IEC-18 or 3T3	
